Assay results reported in patent US9708314B2, “Heterocyclic amide compound” (NISSAN CHEMICAL INDUSTRIES, LTD., priority 2013, dated 2017).

Tests used:
Format in all cases: in vivo
[1] = tested on: transplanted Oryza sativa; assay: Test Example 1: effect on crop, application before weed generation in submerged conditions; conditions: Seventeenth Table; for a: transplanted Oryza sativa (effect on crop grade): Application herbicide amount 320 g/ha
Procedure, shortened: (§1)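 Water-diluted emulsion formulation is applied onto flood water (4 cm deep) covering alluvial soil on the day weed seeds are sown, after transplanting 2.5 leaf stage rice. Rates are expressed per hectare. Injury or control is graded 0–5 three weeks later.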

[2] = tested on: Scirpus juncoides; assay: Test Example 1: herbicidal activity, application before weed generation in submerged conditions; conditions: Seventeenth Table; for B: Scirpus juncoides (herbicidal effect grade): Application herbicide amount 320 g/ha
Procedure, shortened: as §1

[3] = tested on: Monochoria vaginalis; assay: as above; conditions: Application herbicide amount 320 g/ha; Seventeenth Table
Procedure, shortened: as §1

[4] = tested on: Beta vulgaris ssp. vulgaris; assay: Test Example 4: effect on crop by application to foliage (diluvial soil, plastic box); conditions: for f: effect on crop, Beta vulgaris ssp. vulgaris / effect on crop, f (Beta vulgaris ssp. vulgaris): application to foliage; for f: effect on crop, Beta vulgaris ssp. vulgaris: application herbicide amount 320 g/ha; for f (Beta vulgaris ssp. vulgaris) effect on crop grade: foliage application
Procedure, shortened: (§2)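 Greenhouse plants (25° C. to 30° C., 14 d, diluvial soil) receive a foliar spray of water-diluted emulsifiable formulation at defined g/ha. Grading after 3 weeks uses a six-step herbicidal-ratio scale, with 4 covering 70% to <90% and 1 covering 5% to <20%.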

[5] = tested on: Glycine max; assay: as above; conditions: for d: effect on crop, Glycine max / effect on crop, c (Glycine max): application to foliage; for d: effect on crop, Glycine max: application herbicide amount 320 g/ha; for c (Glycine max) effect on crop grade: foliage application
Procedure, shortened: as §2

[6] = tested on: Brassica campestris L.; assay: as above; conditions: for g: effect on crop, Brassica campestris L. / effect on crop, g (Brassica campestris L.): application to foliage; for g: effect on crop, Brassica campestris L.: application herbicide amount 320 g/ha; for g (Brassica campestris L.) effect on crop grade: foliage application
Procedure, shortened: as §2

[7] = tested on: Triticum aestivum; assay: as above; conditions: for e: effect on crop, Triticum aestivum / effect on crop, e (Triticum aestivum): application to foliage; for e: effect on crop, Triticum aestivum: application herbicide amount 320 g/ha; for e (Triticum aestivum) effect on crop grade: foliage application
Procedure, shortened: as §2

[8] = tested on: directly sowed Oryza sativa; assay: as above; conditions: for b: effect on crop, directly sowed Oryza sativa / effect on crop, d (directly sowed Oryza sativa): application to foliage; for b: effect on crop, directly sowed Oryza sativa: application herbicide amount 320 g/ha; for d (directly sowed Oryza sativa) effect on crop grade: foliage application
Procedure, shortened: as §2

[9] = tested on: Zea mays; assay: as above; conditions: for c: effect on crop, Zea mays: application herbicide amount 320 g/ha; for b (Zea mays) effect on crop grade: foliage application, 320 g/ha
Procedure, shortened: as §2

[10] = tested on: Echinochloa oryzacola Vasing.; assay: Test Example 1: herbicidal activity, application before weed generation in submerged conditions; conditions: Seventeenth Table; for A: Echinochloa oryzicola Vasing. (herbicidal effect grade): Application herbicide amount 320 g/ha
Procedure, shortened: as §1

[11] = application herbicide amount 260 g/ha

Structure (SMILES)	a: transplanted Oryza sativa (effect on crop grade) [1]	B: Scirpus juncoides (herbicidal effect grade) [2]	C: Monochoria vaginalis (herbicidal effect grade) [3]	f: effect on crop, Beta vulgaris ssp. vulgaris [4]	d: effect on crop, Glycine max [5]	g: effect on crop, Brassica campestris L. [6]	e: effect on crop, Triticum aestivum [7]	b: effect on crop, directly sowed Oryza sativa [8]	c: effect on crop, Zea mays ([9]; application to foliage)	A: Echinochloa oryzicola Vasing. (herbicidal effect grade) [10]	effect on crop, f (Beta vulgaris ssp. vulgaris) ([4]; 320 g/ha)	effect on crop, c (Glycine max) ([5]; 320 g/ha)	effect on crop, g (Brassica campestris L.) ([6]; 320 g/ha)	effect on crop, e (Triticum aestivum) ([7]; 320 g/ha)	effect on crop, d (directly sowed Oryza sativa) ([8]; 320 g/ha)	further results
Cc1nnc(NC(=O)c2ccc(C(F)(F)F)n3c(SC4CCCC4)nnc23)o1 [1-154]	0 (Herbicidal ratio of 5% or less (almost no effect))	3 (Herbicidal ratio of 40% or more and less than 70%)	2 (Herbicidal ratio of 20% or more and less than 40%)	4 (Herbicidal ratio of 70% or more and less than 90%)	2 (Herbicidal ratio of 20% or more and less than 40%)	0 (Herbicidal ratio of 5% or less (almost no effect))	0 (Herbicidal ratio of 5% or less (almost no effect))	0 (Herbicidal ratio of 5% or less (almost no effect))	0 (Herbicidal ratio of 5% or less (almost no effect))							
O=C(Nc1nnco1)c1ccc(C(F)(F)F)n2c(SC3CCCC3)nnc12 [1-155]	0 (Herbicidal ratio of 5% or less (almost no effect))	4 (Herbicidal ratio of 70% or more and less than 90%)	3 (Herbicidal ratio of 40% or more and less than 70%)	5 (Herbicidal ratio of 90% or more (almost completely withered))	3 (Herbicidal ratio of 40% or more and less than 70%)	0 (Herbicidal ratio of 5% or less (almost no effect))	0 (Herbicidal ratio of 5% or less (almost no effect))	0 (Herbicidal ratio of 5% or less (almost no effect))	0 (Herbicidal ratio of 5% or less (almost no effect))							
Cc1nnc(NC(=O)c2ccc(C(F)(F)F)n3c(SCc4ccc(Cl)nc4)nnc23)o1 [1-156]	0 (Herbicidal ratio of 5% or less (almost no effect))	2 (Herbicidal ratio of 20% or more and less than 40%)	0 (Herbicidal ratio of 5% or less (almost no effect))	3 (Herbicidal ratio of 40% or more and less than 70%)	3 (Herbicidal ratio of 40% or more and less than 70%)	0 (Herbicidal ratio of 5% or less (almost no effect))	1 (Herbicidal ratio of 5% or more and less than 20%)	0 (Herbicidal ratio of 5% or less (almost no effect))	0 (Herbicidal ratio of 5% or less (almost no effect))							
O=C(Nc1nnco1)c1ccc(C(F)(F)F)n2c(SCc3ccc(Cl)nc3)nnc12 [1-157]	2 (Herbicidal ratio of 20% or more and less than 40%)	3 (Herbicidal ratio of 40% or more and less than 70%)	2 (Herbicidal ratio of 20% or more and less than 40%)	4 (Herbicidal ratio of 70% or more and less than 90%)	3 (Herbicidal ratio of 40% or more and less than 70%)	2 (Herbicidal ratio of 20% or more and less than 40%)	1 (Herbicidal ratio of 5% or more and less than 20%)	0 (Herbicidal ratio of 5% or less (almost no effect))	0 (Herbicidal ratio of 5% or less (almost no effect))							
COc1cc(OC)cc(-c2nnc3c(C(=O)Nc4nnnn4C)ccc(C(F)(F)F)n23)c1 [2-063]	4 (Herbicidal ratio of 70% or more and less than 90%)		5 (Herbicidal ratio of 90% or more (almost completely withered))							5 (Herbicidal ratio of 90% or more (almost completely withered))						f (Beta vulgaris ssp. vulgaris) effect on crop grade ([4]; 320 g/ha): 5 (Herbicidal ratio of 90% or more (almost completely withered)); c (Glycine max) effect on crop grade ([5]; 320 g/ha): 3 (Herbicidal ratio of 40% or more and less than 70%); g (Brassica campestris L.) effect on crop grade ([6]; 320 g/ha): 4 (Herbicidal ratio of 70% or more and less than 90%); e (Triticum aestivum) effect on crop grade ([7]; 320 g/ha): 3 (Herbicidal ratio of 40% or more and less than 70%); d (directly sowed Oryza sativa) effect on crop grade ([8]; 320 g/ha): 4 (Herbicidal ratio of 70% or more and less than 90%); b (Zea mays) effect on crop grade [9]: 4 (Herbicidal ratio of 70% or more and less than 90%)
Cn1nnnc1NC(=O)c1ccc(C(F)(F)F)n2c(-c3cc(Cl)cc(Cl)c3)nnc12 [2-064]	3 (Herbicidal ratio of 40% or more and less than 70%)		2 (Herbicidal ratio of 20% or more and less than 40%)							5 (Herbicidal ratio of 90% or more (almost completely withered))						f (Beta vulgaris ssp. vulgaris) effect on crop grade ([4]; 320 g/ha): 4 (Herbicidal ratio of 70% or more and less than 90%); c (Glycine max) effect on crop grade ([5]; 320 g/ha): 0 (Herbicidal ratio of 5% or less (almost no effect)); g (Brassica campestris L.) effect on crop grade ([6]; 320 g/ha): 3 (Herbicidal ratio of 40% or more and less than 70%); e (Triticum aestivum) effect on crop grade ([7]; 320 g/ha): 0 (Herbicidal ratio of 5% or less (almost no effect)); d (directly sowed Oryza sativa) effect on crop grade ([8]; 320 g/ha): 3 (Herbicidal ratio of 40% or more and less than 70%); b (Zea mays) effect on crop grade [9]: 0 (Herbicidal ratio of 5% or less (almost no effect))
Cn1nnnc1NC(=O)c1ccc(C(F)(F)F)n2c(NCC(F)(F)F)nnc12 [2-081]	3 (Herbicidal ratio of 40% or more and less than 70%)	3 (Herbicidal ratio of 40% or more and less than 70%)	4 (Herbicidal ratio of 70% or more and less than 90%)							4 (Herbicidal ratio of 70% or more and less than 90%)	5 (Herbicidal ratio of 90% or more (almost completely withered))	0 (Herbicidal ratio of 5% or less (almost no effect))	4 (Herbicidal ratio of 70% or more and less than 90%)	2 (Herbicidal ratio of 20% or more and less than 40%)	3 (Herbicidal ratio of 40% or more and less than 70%)	
CC(C)N(C)c1nnc2c(C(=O)Nc3nnnn3C)ccc(C(F)(F)F)n12 [2-082]	5 (Herbicidal ratio of 90% or more (almost completely withered))	5 (Herbicidal ratio of 90% or more (almost completely withered))	5 (Herbicidal ratio of 90% or more (almost completely withered))							5 (Herbicidal ratio of 90% or more (almost completely withered))	5 (Herbicidal ratio of 90% or more (almost completely withered))	1 (Herbicidal ratio of 5% or more and less than 20%)	5 (Herbicidal ratio of 90% or more (almost completely withered))	4 (Herbicidal ratio of 70% or more and less than 90%)	5 (Herbicidal ratio of 90% or more (almost completely withered))	
CN(c1nnc2c(C(=O)Nc3nnnn3C)ccc(C(F)(F)F)n12)C1CCCCC1 [2-083]	2 (Herbicidal ratio of 20% or more and less than 40%)	5 (Herbicidal ratio of 90% or more (almost completely withered))	4 (Herbicidal ratio of 70% or more and less than 90%)							5 (Herbicidal ratio of 90% or more (almost completely withered))	5 (Herbicidal ratio of 90% or more (almost completely withered))	0 (Herbicidal ratio of 5% or less (almost no effect))	1 (Herbicidal ratio of 5% or more and less than 20%)	0 (Herbicidal ratio of 5% or less (almost no effect))	4 (Herbicidal ratio of 70% or more and less than 90%)	
Cn1nnnc1NC(=O)c1ccc(C(F)(F)F)n2c(C=O)nnc12 [2-109]																a (transplanted Oryza sativa) effect on crop grade [1, 11]: 0 (Herbicidal ratio of 5% or less (almost no effect)); A (Echinochloa oryzicola Vasing.) herbicidal ratio grade [10, 11]: 2 (Herbicidal ratio of 20% or more and less than 40%); B (Scirpus juncoides) herbicidal ratio grade [2, 11]: 3 (Herbicidal ratio of 40% or more and less than 70%); effect on crop, f (Beta vulgaris ssp. vulgaris) ([4]; 256 g/ha): 5 (Herbicidal ratio of 90% or more (almost completely withered)); effect on crop, c (Glycine max) ([5]; 256 g/ha): 0 (Herbicidal ratio of 5% or less (almost no effect)); effect on crop, g (Brassica campestris L.) ([6]; 256 g/ha): 4 (Herbicidal ratio of 70% or more and less than 90%); effect on crop, e (Triticum aestivum) ([7]; 256 g/ha): 1 (Herbicidal ratio of 5% or more and less than 20%); effect on crop, d (directly sowed Oryza sativa) ([8]; 256 g/ha): 4 (Herbicidal ratio of 70% or more and less than 90%); effect on crop, b (Zea mays) ([9]; application to foliage, 256 g/ha): 1 (Herbicidal ratio of 5% or more and less than 20%)
